US20250074892A1, “CARBONYL BRIDGED HETEROCYCLIC COMPOUND, AND COMPOSITION AND APPLICATION THEREOF” (BEIJING SCITECH-MQ PHARMACEUTICALS LIMITED, priority 2022, published 2025)

Assays:
L929 cells = experiment: Inhibition of cell necrosis (CCK8 method), L929 cells; type: cell-based, mouse; conditions: 4-8 hours, CCK8
Description: (§1) In this assay example 2, under the condition of inducing programmed cell necrosis of HT29 and L929 cell lines, different concentrations of the test compounds were added to test the IC50 of the rescue effect of the test compounds on the programmed necrosis.
(§2) • Compounds: dissolved in DMSO to make a 10 mM solution; • TNF-α: initial concentration of 100 µg/mL; • Z-VAD-FMK: dissolved in DMSO to make a 10 mM solution; • AT-406: dissolved in DMSO to make a 10 mM solution. • Cell lines: HT29 cells were cultured in McCoy's 5A medium containing 10% fetal bovine serum, 100 U/mL penicillin, and 100 µg/mL streptomycin, and L929 cells were cultured in MEM medium containing 10% horse serum, 100 U/mL penicillin, and 100 µg/mL streptomycin.
(§3) 1. The test compound was dissolved in DMSO to form a stock solution, and a gradient dilution was performed; the solution was then diluted with the corresponding culture medium to obtain a solution with 10 times the working concentration.
(§4) 2. The cells in the logarithmic growth phase were diluted with culture medium to a specific cell concentration. 80 µL of the cell suspension was added to a 96-well plate, so that the cell densities of HT29 and L929 were 1.2*10^4 cells/well and 2.0*10^4 cells/well, respectively. The plate was cultured in a 37° C., 5% carbon dioxide incubator overnight.
(§5) 3. […] of the compound solution was added to each well of the 96-well plate inoculated with cells. The compounds to be tested were serially diluted 4-fold to obtain 9 concentrations in duplicate, starting from a maximum concentration of 10 μM. At the same time, a control group without compound addition was set up.
(§6) 4. After the cells were cultured for another 30 minutes, 10 μL of the inducer mixture was added to each well. The final concentrations of Human TNF-α, AT-406 and Z-VAD-FMK in HT29 cells were 20 ng/mL, […] and 20 μM, respectively; and the final concentrations of Murine TNF-α and Z-VAD-FMK in L929 cells were 20 ng/mL and 25 μM, respectively.
(§7) 5. The 96-well plate in which compounds and inducer were added was placed in a 37° C., 5% carbon dioxide incubator for further culture, wherein HT29 cells were cultured for 16 hours and L929 cells were cultured for 4-8 hours. Cell viability was detected by CCK8. GraphPad Prism software was used to prepare a dose-effect curve and IC50 was calculated.

HT29 cells = experiment: Inhibition of cell necrosis (CCK8 method), HT29 cells; type: cell-based, human; conditions: HT29, Human TNF-α/AT-406/Z-VAD-FMK, 16 hours, CCK8
Description: as §1, §2, §3, §4, §5, §6, §7

[1] = Mus musculus, L929, L929, Murine TNF-α/Z-VAD-FMK

| Compound | IC50 (L929 cells; [1]) [nM] | IC50 (HT29 cells; Homo sapiens, HT-29, 16 h) [nM] | IC50 (L929 cells; L929, Murine TNF-α/Z-VAD-FMK) [nM] | IC50 (HT29 cells) [nM] |
| --- | --- | --- | --- | --- |
| COCCCOc1ccc(C)c(-c2ccnc(N3CCC(C(=O)N4N=CCC4c4cc(F)cc(F)c4)CC3)c2)c1 (stereo not shown) [Example 5, (5-(3,5-difluorophenyl)-4,5-dihydro-1H-pyrazol-1-yl)(1-(4-(5-(3-methoxypropoxy)-2-methylphenyl)pyridin-2-yl)piperidin-4-yl)methanone] | 50 to 100 | 10 to 50 |  |  |
| CC(C)(O)CCCOc1ccc(F)c(-c2ccnc(N3CCC(C(=O)N4N=CCC4c4cc(F)cc(F)c4)CC3)c2)c1 (racemic) [Example 24, (5-(3,5-difluorophenyl)-4,5-dihydro-1H-pyrazol-1-yl)(1-(4-(2-fluoro-5-((4-hydroxy-4-methylpentyl)oxy)phenyl)pyridin-2-yl)piperidin-4-yl)methanone] | 10 to 50 | ≤ 10 |  |  |
| O=C(C1CCN(c2cc(-c3cccc(OCC4CCOCC4)c3)ccn2)CC1)N1N=CCC1c1cc(F)cc(F)c1 (stereo not shown) [Example 14, (5-(3,5-difluorophenyl)-4,5-dihydro-1H-pyrazol-1-yl)(1-(4-(3-((tetrahydro-2H-pyran-4-yl)methoxy)phenyl)pyridin-2-yl)piperidin-4-yl)methanone] | 10 to 50 | 10 to 50 |  |  |
| O=C(C1CCN(c2cc(-c3cccc(OCCCO)c3)ccn2)CC1)N1N=CCC1c1cc(F)cc(F)c1 (stereo not shown) [Example 12, (5-(3,5-difluorophenyl)-4,5-dihydro-1H-pyrazol-1-yl)(1-(4-(3-(3-hydroxypropoxy)phenyl)pyridin-2-yl)piperidin-4-yl)methanone] | 50 to 100 | ≤ 10 |  |  |
| O=C(C1CCN(c2cc(-c3cc(OCC(F)(F)CO)ccc3F)ccn2)CC1)N1N=CCC1c1cc(F)cc(F)c1 (stereo not shown) [Example 37, (1-(4-(5-(2,2-difluoro-3-hydroxypropoxy)-2-fluorophenyl)pyridin-2-yl)piperidin-4-yl) (5-(3,5-difluorophenyl)-4,5-dihydro-1H-pyrazol-1-yl)methanone] | 10 to 50 | ≤ 10 |  |  |
| COCCCOc1cccc(-c2ccnc(N3CCC(C(=O)N4N=CCC4c4cc(F)cc(F)c4)CC3)c2)c1 (stereo not shown) [Example 2, (5-(3,5-difluorophenyl)-4,5-dihydro-1H-pyrazol-1-yl)(1-(4-(3-(3-methoxypropoxy)phenyl)pyridin-2-yl)piperidin-4-yl)methanone] | 50 to 100 | 10 to 50 |  |  |
| Cc1ccc(OCCCO)cc1-c1ccnc(N2CCC(C(=O)N3N=CCC3c3cc(F)cc(F)c3)CC2)c1 (stereo not shown) [Example 15, (5-(3,5-difluorophenyl)-4,5-dihydro-1H-pyrazol-1-yl)(1-(4-(5-(3-hydroxypropoxy)-2-methylphenyl)pyridin-2-yl)piperidin-4-yl)methanone] | 10 to 50 | ≤ 10 |  |  |
| Cc1ccc(OCC2CCOCC2)cc1-c1ccnc(N2CCC(C(=O)N3N=CCC3c3cc(F)cc(F)c3)CC2)c1 (stereo not shown) [Example 33, (5-(3,5-difluorophenyl)-4,5-dihydro-1H-pyrazol-1-yl)(1-(4-(2-methyl-5-((tetrahydro-2H-pyran-4-yl)methoxy)phenyl)pyridin-2-yl)piperidin-4-yl)methanone] | 10 to 50 | ≤ 10 |  |  |
| COCCOc1cccc(-c2ccnc(N3CCC(C(=O)N4N=CCC4c4cc(F)cc(F)c4)CC3)c2)c1 (stereo not shown) [Example 1, (5-(3,5-difluorophenyl)-4,5-dihydro-1H-pyrazol-1-yl)(1-(4-(3-(2-methoxyethoxy)phenyl)pyridin-2-yl)piperidin-4-yl)methanone] | 50 to 100 | 10 to 50 |  |  |
| COCCOc1ccc(C)c(-c2ccnc(N3CCC(C(=O)N4N=CCC4c4ccccc4F)CC3)c2)c1 (stereo not shown) [Example 19, (5-(2-fluorophenyl)-4,5-dihydro-1H-pyrazol-1-yl)(1-(4-(5-(2-methoxyethoxy)-2-methylphenyl)pyridin-2-yl)piperidin-4-yl)methanone] | 10 to 50 | ≤ 10 |  |  |
| COCCCOc1ccc(F)c(-c2ccnc(N3CCC(C(=O)N4N=CCC4c4cc(F)cc(F)c4)CC3)c2)c1 (stereo not shown) [Example 30, (5-(3,5-difluorophenyl)-4,5-dihydro-1H-pyrazol-1-yl)(1-(4-(2-fluoro-5-(3-methoxypropoxy)phenyl)pyridin-2-yl)piperidin-4-yl)methanone] | 50 to 100 | ≤ 10 |  |  |
| Cc1ccc(OCCCO)cc1-c1ccnc(N2CCC(C(=O)N3N=CCC3c3ccccc3)CC2)c1 (stereo not shown) [Example 31, (1-(4-(5-(3-hydroxypropoxy)-2-methylphenyl)pyridin-2-yl)piperidin-4-yl)(5-phenyl-4,5-dihydro-1H-pyrazol-1-yl)methanone] | 10 to 50 | ≤ 10 |  |  |
| COCCOc1ccc(C)c(-c2ccnc(N3CCC(C(=O)N4N=CCC4c4ccccc4)CC3)c2)c1 (stereo not shown) [Example 28, (1-(4-(5-(2-methoxyethoxy)-2-methylphenyl)pyridin-2-yl)piperidin-4-yl)(5-phenyl-4,5-dihydro-1H-pyrazol-1-yl)methanone] | 50 to 100 | ≤ 10 |  |  |
| COCCCCOc1ccc(C)c(-c2ccnc(N3CCC(C(=O)N4N=CCC4c4cc(F)cc(F)c4)CC3)c2)c1 (stereo not shown) [Example 32, (5-(3,5-difluorophenyl)-4,5-dihydro-1H-pyrazol-1-yl)(1-(4-(5-(4-methoxybutoxy)-2-methylphenyl)pyridin-2-yl)piperidin-4-yl)methanone] |  | ≤ 10 | 10 to 50 |  |
| Cc1ccc(OCCCCO)cc1-c1ccnc(N2CCC(C(=O)N3N=CCC3c3cc(F)cc(F)c3)CC2)c1 (stereo not shown) [Example 9, (5-(3,5-difluorophenyl)-4,5-dihydro-1H-pyrazol-1-yl)(1-(4-(5-(4-hydroxybutoxy)-2-methylphenyl)pyridin-2-yl)piperidin-4-yl)methanone] |  | 10 to 50 | 10 to 50 |  |
| O=C(C1CCN(c2cc(-c3cc(OCCCCCO)ccc3F)ccn2)CC1)N1N=CCC1c1cc(F)cc(F)c1 (stereo not shown) [Example 25, (5-(3,5-difluorophenyl)-4,5-dihydro-1H-pyrazol-1-yl)(1-(4-(2-fluoro-5-((5-hydroxypentyl)oxy)phenyl)pyridin-2-yl)piperidin-4-yl)methanone] | 10 to 50 | ≤ 10 |  |  |
| O=C(C1CCN(c2nccc(-c3cc(OCCCO)ccc3F)n2)CC1)N1N=CCC1c1cc(F)cc(F)c1 (stereo not shown) [Example 38, (5-(3,5-difluorophenyl)-4,5-dihydro-1H-pyrazol-1-yl)(1-(4-(2-fluoro-5-(3-hydroxypropoxy)phenyl)pyrimidin-2-yl)piperidin-4-yl)methanone] | 50 to 100 | 10 to 50 |  |  |
| Cc1ccc(OCCCO)cc1-c1ccnc(N2CCC(C(=O)N3N=CCC3c3ccccc3F)CC2)c1 (stereo not shown) [Example 20, (5-(2-fluorophenyl)-4,5-dihydro-1H-pyrazol-1-yl)(1-(4-(5-(3-hydroxypropoxy)-2-methylphenyl)pyridin-2-yl)piperidin-4-yl)methanone] |  |  | 10 to 50 | 10 to 50 |
| Cc1ccc(OCCCCO)cc1-c1ccnc(N2CCC(C(=O)N3N=CCC3c3cc(F)cc(F)c3)CC2)c1 (stereo not shown) [Example 35, (5-(3,5-difluorophenyl)-4,5-dihydro-1H-pyrazol-1-yl)(1-(4-(5-(4-hydroxybutoxy)-2-methylphenyl)pyridin-2-yl)piperidin-4-yl)methanone] |  |  | 50 to 100 | 10 to 50 |
| O=C(C1CCN(c2cc(-c3cc(OCC4(O)CC4)ccc3F)ccn2)CC1)N1N=CCC1c1cc(F)cc(F)c1 (stereo not shown) [Example 45, [5-(3,5-difluorophenyl)-4,5-dihydro-1H-pyrazol-1-yl]-[1-[4-[2-fluoro-5-[(1-hydroxycyclopropyl)methoxy]phenyl]pyridin-2-yl]piperidin-4-yl]methanone] | 10 to 50 | ≤ 10 |  |  |
| Cc1ccc(OCCCO)cc1-c1ccnc(N2CCC(C(=O)N3N=CCC3c3ccccc3F)CC2)c1 (stereo not shown) [Example 29, (5-(2-fluorophenyl)-4,5-dihydro-1H-pyrazol-1-yl)(1-(4-(5-(3-hydroxypropoxy)-2-methylphenyl)pyridin-2-yl)piperidin-4-yl)methanone] |  | 10 to 50 | 50 to 100 |  |
| O=C(C1CCN(c2cc(-c3cc(OCCO)ccc3F)ccn2)CC1)N1N=CCC1c1cc(F)cc(F)c1 (stereo not shown) [Example 22, (5-(3,5-difluorophenyl)-4,5-dihydro-1H-pyrazol-1-yl)(1-(4-(2-fluoro-5-(2-hydroxyethoxy)phenyl)pyridin-2-yl)piperidin-4-yl)methanone] | 50 to 100 | ≤ 10 |  |  |
| CC(C)(O)CCOc1ccc(F)c(-c2ccnc(N3CCC(C(=O)N4N=CC[C@H]4c4cc(F)cc(F)c4)CC3)c2)c1 (racemic) [Example 41] | 10 to 50 | ≤ 10 |  |  |
